Consider eight molecules from US20250179047A1, “5-[7-(3,4-DIHYDRO-1H-ISOQUINOLINE-2-CARBONYL)-1,2,3,4 TETRAHYDROISOQUINOLIN-6-YL]-1H-PYRROLE-3-CARBOXAMIDE DERIVATIVES, PHARMACEUTICAL COMPOSITIONS CONTAINING THEM AND THEIR USES AS PRO-APOPTOTIC AGENTS” (LES LABORATOIRES SERVIER, priority 2022, published 2025).

For assay [1], the target named is BCL2 WT (Homo sapiens (Human), UniProt P10415). The assay can be described thus: TR-FRET competitive binding assay, BCL2 WT. Conditions: Ki determined from IC50, read-out: TR_FRET EKI_Bcl2 WT. The gist of the method: (§1)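 Competitive TR-FRET displacement of fluorescein-PUMA peptide (2 or 20 nM) from 0.5 nM terbium-labelled N-terminal Halo-fusion BCL2 (1-207, wild type or mutant) or BCLXL (2-196), expressed in E. coli. Buffer 50 mM Hepes pH 7.5, 150 mM NaCl, 5% DMSO; 2 h at 23°C. 520/495 nm ratio fitted over 11 points for IC50, converted to Ki.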

In assay [2] the target is BCL2 D103Y (Homo sapiens, UniProt P10415, D103Y). The assay can be described thus: TR-FRET competitive binding assay, BCL2 D103Y. Conditions: Ki determined from IC50, read-out: TR_FRET EKI_Bcl2 D103Y. In outline: as §1
(In TR-FRET formats the signal depends on donor and acceptor labels being close together.)

In assay [3] the target is BCLXL WT (Homo sapiens (Human), UniProt Q07817). Kind of assay: TR-FRET competitive binding assay, BCLXL WT. Conditions: for pKi: BCLXL WT, Ki determined from IC50, read-out: TR_FRET EKI BclxL; for TR_FRET EKI BCLxL/WT selectivty ratio: ratio Ki BCLxL / Ki BCL2 WT. The gist of the method: as §1
The test system of assay [4] is BCL2 G101V. The assay can be described thus: TR-FRET competitive binding assay, BCL2 G101V. More on the design: species or system human. The note with it: ratio Ki BCL2 G101V / Ki BCL2 WT. In outline:
as §1

The target in assay [5] is BCL2 G101V (Homo sapiens, UniProt P10415, G101V). Kind of assay: TR-FRET competitive binding assay, BCL2 G101V. The note with it: BCL2 G101V; Ki determined from IC50; read-out: TR_FRET EKI_Bcl2 G101V. The gist of the method:
as §1

The test system of assay [6] is KMS-12-PE Bcl-2 G101V. Kind of assay: In vitro cytotoxicity CellTiter-Glo 48 h, KMS-12-PE Bcl-2 G101V. In kind it is cell-based. The note with it: for Ratio (G101V/WT): C50 KMS-12-PE Bcl-2 G101V over C50 KMS-12-PE Bcl-2 WT; for IC50: Homo sapiens, KMS-12-PE, 48 h, CellTiter-Glo, C50 = concentration needed to reach 50% of the cellular viability. The gist of the method: (§2)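 Bcl-2 WT- and G101V-expressing KMS-12-PE cells; 48 h treatment at 37 °C, 5% CO2; CellTiter-Glo ATP luminescence; C50 from 11-point curves.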

For assay [7], the system named is KMS-12-PE Bcl-2 WT. The assay can be described thus: In vitro cytotoxicity CellTiter-Glo 48 h, KMS-12-PE Bcl-2 WT. The note with it: Homo sapiens, KMS-12-PE, C50 = concentration needed to reach 50% of the cellular viability. In kind it is cell-based. The gist of the method: as §2

pKi: −log10 of the molar value.

Sequence of BCLXL WT (Q07817 other isoform, or with tags, fused parts or gaps): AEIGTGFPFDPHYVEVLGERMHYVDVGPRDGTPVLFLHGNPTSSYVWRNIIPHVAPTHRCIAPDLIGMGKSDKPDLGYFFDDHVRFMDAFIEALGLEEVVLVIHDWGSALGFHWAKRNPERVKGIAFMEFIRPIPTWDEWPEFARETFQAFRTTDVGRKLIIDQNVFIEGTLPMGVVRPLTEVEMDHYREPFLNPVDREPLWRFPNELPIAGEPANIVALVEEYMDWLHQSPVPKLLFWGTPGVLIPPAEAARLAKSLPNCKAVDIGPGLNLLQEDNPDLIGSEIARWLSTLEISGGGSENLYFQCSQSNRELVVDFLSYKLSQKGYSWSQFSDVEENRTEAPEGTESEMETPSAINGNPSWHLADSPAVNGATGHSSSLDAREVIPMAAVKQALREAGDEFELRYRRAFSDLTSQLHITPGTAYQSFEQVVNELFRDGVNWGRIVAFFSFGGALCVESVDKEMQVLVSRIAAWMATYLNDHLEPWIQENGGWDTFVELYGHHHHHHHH

By IC50 is commonly meant the point on the concentration scale where inhibition reaches its midpoint. Read a high IC50 as weaker potency. As for `Cc1c(C(=O)N(c2ccc(O)cc2)c2ccc3c(cnn3C)c2)cc(-c2cc3c(cc2C(=O)N2Cc4ccccc4C[C@H]2C)CN(C(=O)Cc2ccc(OCCN4CCOCC4)cc2)CC3)n1C` [Example 90, N-(4-hydroxyphenyl)-1,2-dimethyl-5-(7-{[(3R)-3-methyl-3,4-dihydro-1H-isoquinolin-2-yl]carbonyl}-2-(2-{4-[2-(morpholin-4-yl)ethoxy]phenyl}acetyl)-3,4-dihydro-1H-isoquinolin-6-yl)-N-(1-methylindazol-5-yl)pyrrole-3-carboxamide], the pKi in assay [1] is 9.60; in assay [2], 9.06; in assay [3] it was 8.35; in assay [5], 9.10. Also, the “TR_FRET EKI BCLxL/WT selectivty ratio” value in assay [3] stood at 18.0. Moreover, in assay [4], the “TR_FRET EKI G101V/WT selectivty ratio” value came out at 3.4. Also, the “Ratio (G101V/WT)” value in assay [6] is recorded as 5.92. Further, the IC50 in assay [6] was 0.0657 µM; in assay [7], 0.0111 µM.

Regarding `Cc1c(N(C(=O)c2cc(-c3cc4c(cc3C(=O)N3Cc5ccccc5C[C@H]3CN3CCCCC3)CN(C(=O)Cc3ccc(OCCN5CCOCC5)cc3F)CC4)n(C)c2C)c2ccccc2)cc(C#N)n1C` [Example 92, N-(5-cyano-1,2-dimethyl-pyrrol-3-yl)-5-[2-[2-[2-fluoro-4-(2-morpholinoethoxy)phenyl]acetyl]-7-[(3S)-3-(1-piperidylmethyl)-3,4-dihydro-1H-isoquinoline-2-carbonyl]-3,4-dihydro-1H-isoquinolin-6-yl]-1,2-dimethyl-N-phenyl-pyrrole-3-carboxamide], the pKi is 10.52 in assay [1], 9.96 in assay [2], 8.07 in assay [3] and 9.05 in assay [5]. The “TR_FRET EKI BCLxL/WT selectivty ratio” value in assay [3] is recorded as 303.6. In assay [4], the “TR_FRET EKI G101V/WT selectivty ratio” value is listed as 30.7. Moreover, in assay [6], the “Ratio (G101V/WT)” value was found to be 11.7. Also, the IC50 turned out to be 0.0974 µM in assay [6] and 0.0085 µM in assay [7].

`Cc1c(N(C(=O)c2cc(-c3cc4c(cc3C(=O)N3Cc5ccccc5C[C@H]3C)CN(C(=O)Cc3ccc(OCCN5CCOC6(CC6)C5)cc3)CC4)n(C)c2C)c2ccc(O)cc2)cc(C#N)n1C` [Example 93, N-(5-cyano-1,2-dimethyl-1H-pyrrol-3-yl)-N-(4-hydroxyphenyl)-1,2-dimethyl-5-{7-[(3R)-3-methyl-1,2,3,4-tetrahydroisoquinoline-2-carbonyl]-2-{2-[4-(2-{4-oxa-7-azaspiro[2.5]octan-7-yl}ethoxy)phenyl]acetyl}-1,2,3,4-tetrahydroisoquinolin-6-yl}-1H-pyrrole-3-carboxamide]: the pKi in assay [1] was 9.72; in assay [2], 9.47; in assay [3], 8.62; in assay [5] it was 8.96. In addition, the “TR_FRET EKI BCLxL/WT selectivty ratio” value in assay [3] amounted to 12.6. Further, in assay [4], the “TR_FRET EKI G101V/WT selectivty ratio” value amounted to 5.5. The “Ratio (G101V/WT)” value in assay [6] stood at 3.45. In addition, the IC50 in assay [6] is 0.0182 µM; in assay [7], 0.0053 µM.

Take `Cc1c(C(=O)N(c2ccc(O)cc2)c2cc(C#N)n(C(F)F)c2C)cc(-c2cc3c(cc2C(=O)N2Cc4ccccc4C[C@H]2C)CN(C(=O)Cc2ccc(OCCN4CCOCC4)cc2F)CC3)n1C` [Example 94, N-[5-cyano-1-(difluoromethyl)-2-methylpyrrol-3-yl]-5-[2-(2-{2-fluoro-4-[2-(morpholin-4-yl)ethoxy]phenyl}acetyl)-7-{[(3R)-3-methyl-3,4-dihydro-1H-isoquinolin-2-yl]carbonyl}-3,4-dihydro-1H-isoquinolin-6-yl]-N-(4-hydroxyphenyl)-1,2-dimethylpyrrole-3-carboxamide]: the pKi in assay [1] was 9.66; in assay [2], 9.18; in assay [3], 8.48; in assay [5], 8.96. For the same molecule, in assay [3], the “TR_FRET EKI BCLxL/WT selectivty ratio” value amounted to 15.0. Moreover, the “TR_FRET EKI G101V/WT selectivty ratio” value in assay [4] is recorded as 5.0. For the same molecule, in assay [6], the “Ratio (G101V/WT)” value was 3.31. Also, the figures for the IC50 in assay [6] and in assay [7] were 0.0107 µM and 0.0032 µM, respectively.

`Cc1c(C(=O)N(c2ccc(O)cc2)c2cc(C#N)n(C(F)F)c2C)cc(-c2cc3c(cc2C(=O)N2Cc4ccccc4C[C@H]2C)CN(C(=O)Cc2ccc(OCCN4CCOCC4)cc2)CC3)n1C` [Example 95, N-[5-cyano-1-(difluoromethyl)-2-methylpyrrol-3-yl]-N-(4-hydroxyphenyl)-1,2-dimethyl-5-(7-{[(3R)-3-methyl-3,4-dihydro-1H-isoquinolin-2-yl]carbonyl}-2-(2-{4-[2-(morpholin-4-yl)ethoxy]phenyl}acetyl)-3,4-dihydro-1H-isoquinolin-6-yl)pyrrole-3-carboxamide]: the pKi in assay [1] is 9.74; in assay [2] it was 9.34; in assay [3], 8.41; in assay [5], 9.22. Further, the “TR_FRET EKI BCLxL/WT selectivty ratio” value in assay [3] came out at 21.7. The “TR_FRET EKI G101V/WT selectivty ratio” value in assay [4] is on record as 3.2. The “Ratio (G101V/WT)” value in assay [6] was found to be 4.11. Moreover, the IC50 turned out to be 0.0196 µM in assay [6] and 0.0048 µM in assay [7].

With `Cc1c(N(C(=O)c2cc(-c3cc4c(cc3C(=O)N3Cc5ccccc5C[C@H]3CN3CCCC3)CN(C(=O)Cc3ccc(OCCC5CCOCC5)cc3)CC4)n(C)c2C)c2ccc(O)cc2)cc(C#N)n1C` [Example 99, N-(5-cyano-1,2-dimethylpyrrol-3-yl)-N-(4-hydroxyphenyl)-1,2-dimethyl-5-[2-(2-{4-[2-(oxan-4-yl)ethoxy]phenyl}acetyl)-7-{[(3S)-3-(pyrrolidin-1-ylmethyl)-3,4-dihydro-1H-isoquinolin-2-yl]carbonyl}-3,4-dihydro-1H-isoquinolin-6-yl]pyrrole-3-carboxamide], the pKi in assay [1] is 10.30; in assay [2] it was 9.85; in assay [3] it was 8.55; in assay [5], 9.52. In addition, the “TR_FRET EKI BCLxL/WT selectivty ratio” value in assay [3] amounted to 52.8. The “TR_FRET EKI G101V/WT selectivty ratio” value in assay [4] was 5.2. The “Ratio (G101V/WT)” value in assay [6] amounted to 7.27. The IC50 in assay [6] was found to be 0.0763 µM; in assay [7], 0.0105 µM.

For `Cc1c(N(C(=O)c2cc(-c3cc4c(cc3C(=O)N3Cc5ccccc5C[C@H]3CN3CCCC3)CN(C(=O)Cc3ccc(OCCN5CCOCC5)cc3F)CC4)n(C)c2C)c2ccc(O)cc2)cc(C#N)n1C` [Example 100, N-(5-cyano-1,2-dimethylpyrrol-3-yl)-5-[2-(2-{2-fluoro-4-[2-(morpholin-4-yl)ethoxy]phenyl}acetyl)-7-{[(3S)-3-(pyrrolidin-1-ylmethyl)-3,4-dihydro-1H-isoquinolin-2-yl]carbonyl}-3,4-dihydro-1H-isoquinolin-6-yl]-N-(4-hydroxyphenyl)-1,2-dimethylpyrrole-3-carboxamide], the pKi in assay [1] was 10.70; in assay [2] it was 10.22; in assay [3] it was 8.64; in assay [5], 9.70. The “TR_FRET EKI BCLxL/WT selectivty ratio” value in assay [3] is recorded as 127.8. Further, the “TR_FRET EKI G101V/WT selectivty ratio” value in assay [4] worked out at 8.9. For the same molecule, the “Ratio (G101V/WT)” value in assay [6] turned out to be 4.23. Moreover, the IC50 in assay [6] amounted to 0.066 µM; in assay [7], 0.0156 µM.

`Cc1c(N(C(=O)c2cc(-c3cc4c(cc3C(=O)N3Cc5ccccc5C[C@H]3CN3CCCCC3)CN(C(=O)Cc3ccc(OCCN(C)CC5COC5)cc3F)CC4)n(C)c2C)c2ccc(O)cc2)cc(C#N)n1C` [Example 103, N-(5-cyano-1,2-dimethyl-1H-pyrrol-3-yl)-5-(2-{2-[2-fluoro-4-(2-{methyl[(oxetan-3-yl)methyl]amino}ethoxy)phenyl]acetyl}-7-[(3S)-3-[(piperidin-1-yl)methyl]-1,2,3,4-tetrahydroisoquinoline-2-carbonyl]-1,2,3,4-tetrahydroisoquinolin-6-yl)-N-(4-hydroxyphenyl)-1,2-dimethyl-1H-pyrrole-3-carboxamide]: the pKi is 10.52 in assay [1], 10.05 in assay [2], 8.96 in assay [3] and 9.70 in assay [5]. In addition, the “TR_FRET EKI BCLxL/WT selectivty ratio” value in assay [3] is on record as 35.5. Moreover, the “TR_FRET EKI G101V/WT selectivty ratio” value in assay [4] is 6.5. In addition, in assay [6], the “Ratio (G101V/WT)” value is reported as 6.66. Moreover, the IC50 in assay [6] was 0.0399 µM; in assay [7], 0.006 µM.
